For the test, the target named is T1, protein farnesyltransferase (Rattus norvegicus, UniProt Q02293+Q04631).
T1 construct: The enzyme is purified according to Reiss, Y., et al., Cell, 62: 81-88 (1990), utilizing steps one through three; from tissue; host or cells: rat brain
Nature of the test: Inhibition of farnesyltransferase (scintillation proximity assay, rat brain enzyme, biotin-K Ras B fragment substrate). The test is classed as biochemical. To be noted: for % inhibition of farnesyltransferase at 1 × 10^-7 M: 1 × 10^-7 M (Table 3); for inhibition at 1 µM: read-out: % inhibition of farnesyltransferase at 1 × 10^-6 M; for inhibition at 1 µM / % inhibition of farnesyltransferase at 1 × 10^-6 M: 1 × 10^-6 M (Table 2). In a few lines: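 Enzyme from rat brain, partly purified (steps one to three), assayed by SPA kit using 0.1 mM final biotin-K Ras B peptide as prenyl acceptor rather than biotin-lamin. Activity given as percent inhibition.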
Background: SPA uses beads or plates that emit light when radiolabelled molecules are held near them.

Structures can show the parent of a compound that is named as a salt.

T1 sequence (Q02293 whole entry, one chain of several): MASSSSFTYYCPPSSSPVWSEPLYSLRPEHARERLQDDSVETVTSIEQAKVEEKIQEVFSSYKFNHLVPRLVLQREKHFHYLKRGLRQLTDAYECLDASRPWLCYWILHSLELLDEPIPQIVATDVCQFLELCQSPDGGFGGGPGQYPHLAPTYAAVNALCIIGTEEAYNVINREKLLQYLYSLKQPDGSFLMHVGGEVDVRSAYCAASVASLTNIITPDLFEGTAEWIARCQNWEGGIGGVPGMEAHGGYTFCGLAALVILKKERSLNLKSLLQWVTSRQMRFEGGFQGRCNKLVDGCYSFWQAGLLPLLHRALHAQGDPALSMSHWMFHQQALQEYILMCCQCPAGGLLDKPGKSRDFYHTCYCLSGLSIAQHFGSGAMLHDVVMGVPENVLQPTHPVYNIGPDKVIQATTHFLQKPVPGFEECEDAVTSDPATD

Take `CSCC[C@H](NC(=O)c1ccc(COCc2ccc(Br)o2)cc1-c1ccccc1C)C(=O)[O-].[Li+]` [Example 434]: the “% inhibition of farnesyltransferase at 1 × 10^-7 M” value came to 93%. `Cc1ccccc1-c1cc(CN(C2CC2)C2(CC3CCCCC3)CCC2)ccc1C(=O)N[C@@H](CCS(C)(=O)=O)C(=O)O` [Example 334]: the inhibition (as a rule, the share of the control response that was lost under treatment) at 1 µM was 93%.

On to `CSCC[C@H](NC(=O)c1ccc(CSCc2ccccc2)cc1-c1ccccc1C)C(=O)[O-].[Li+]` [Example 554], for which the “% inhibition of farnesyltransferase at 1 × 10^-6 M” value was 96%. On the same count and under the same terms, under `CSCC[C@H](NC(=O)c1ccc(CNC(CC2CCCCC2)C(O)C(O)CC(C)C)cc1-c1ccccc1C)C(=O)O` (stereo partly shown) [Example 528] stands 99%. For the molecule `CSCC[C@H](NC(=O)c1ccc(-c2cccc(-c3ccccc3)c2)cc1-c1ccccc1C)C(=O)O` [Example 787, N-[4-(3-phenylphenyl)-2-(2-methylphenyl)benzoyl]methionine lithium salt], the inhibition at 1 µM was 70%. As for `COc1cccc(CNCc2ccc(C(=O)N[C@@H](CCSC)C(=O)O)c(-c3ccccc3)c2)c1` [Example 652], the “% inhibition of farnesyltransferase at 1 × 10^-6 M” value was found to be 41%. On to `CSCC[C@H](NC(=O)c1ccc(COCc2ccc(-c3ccccc3C(F)(F)F)o2)cc1-c1ccccc1C)C(=O)[O-].[Li+]` [Example 438], for which the “% inhibition of farnesyltransferase at 1 × 10^-7 M” value is given as 90%.

Source of the values: patent publication US6221865A, “Inhibitors of protein isoprenyl transferases” (priority 1998, dated 2001).
